# Laboratory results as given in US4977152A, “Novel tricyclic derivatives which are agonists of cholinergic receptors, and drugs in which they are present” (Societe Anonyme: Sanofi, priority 1986, dated 1990).
# Positions count from the first letter of the chain named. Structures can show the parent of a compound that is named as a salt. Where two headings read alike, the source gives them in different places.
# Assays:
# [1] = target: T1, M1-type muscarinic cholinergic receptor (Rattus norvegicus, UniProt P08482); assay: Test for affinity for the M1-type muscarinic cholinergic receptor: displacement of [3H]pirenzepine on rat hippocampus homogenate; format: binding; conditions: for IC50: rat hippocampus homogenate, 1 nM [3H]PZ, 2 h at 4° C., pH 7.40; for r = (M2 /M1): ratio of IC50 M2 (3H-NMS, guinea-pig ileum) to IC50 M1 (3H-pirenzepine, rat hippocampus)
# T1 sequence (P08482 1-460): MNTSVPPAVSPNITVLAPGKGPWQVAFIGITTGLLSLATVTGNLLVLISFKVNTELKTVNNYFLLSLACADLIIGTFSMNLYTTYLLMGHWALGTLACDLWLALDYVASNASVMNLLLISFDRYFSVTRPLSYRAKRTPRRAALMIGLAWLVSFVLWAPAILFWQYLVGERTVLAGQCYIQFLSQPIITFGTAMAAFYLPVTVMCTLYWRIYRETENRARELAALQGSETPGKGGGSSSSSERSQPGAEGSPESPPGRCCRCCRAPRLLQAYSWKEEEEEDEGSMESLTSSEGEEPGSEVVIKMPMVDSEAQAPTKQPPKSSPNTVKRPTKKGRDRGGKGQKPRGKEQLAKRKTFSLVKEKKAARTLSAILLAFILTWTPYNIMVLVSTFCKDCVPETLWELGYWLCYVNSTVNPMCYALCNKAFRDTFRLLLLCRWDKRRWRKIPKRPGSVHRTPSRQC
# Text: (§1) The M1 -type receptors are concentrated in certain areas of the brain, such as the hippocampus, the cerebral cortex and the striatum, and also in the sympathetic ganglia. These binding sites can be selectively labeled with [^3 H]pirenzepine ([^3 H]PZ). The M2 -type receptors predominate in the heart and ileum and can be labeled with [^3 H]N-methylscopolamine ([^3 H]NMS). To determine the selectivity of our molecules towards the M1 and M2 sites, we studied their interaction in vitro with [^3 H]PZ and [^3 H]NMS bound with a high affinity to membranes of rat hippocampus and membranes of smooth muscle of guinea-pig ileum, respectively.
# The interaction of the molecules with M1 -type muscarinic receptors was studied by in vitro measurement, on a homogenate of rat hippocampus, of the displacement of tritiated pirenzepine ([^3 H]PZ) from its specific binding sites. Aliquots (10 μl) of a 5% (w/v) homogenate of rat hippocampus in an Na2 HPO4 buffer (50 mM, pH 7.40) are incubated for 2 h at 4° C. in the presence of [^3 H]pZ ([…]; final concentration: 1 nM) and increasing concentrations of products to be studied. The final volume is 2 ml. The reaction is stopped by centrifugation for 10 min at 50,000 × g. After decantation and washing of the residues, the bound radioactivity is counted by liquid scintillation. The non-specific binding is determined in the presence of 10 μmol/l of atropine sulfate. The 50% inhibitory concentration (IC50) is determined graphically (Ref.: Watson J. D., Roeskoe W. R. and Yamamura H.1., Life Sci., 31, 2019-2029, 1982).
# (§2) Table 4 indicates the affinities of the products of the invention for M1 and M2 receptors. The results are expressed as 50% inhibitory concentrations (IC50), i.e. the concentration (in μM) which causes a 50% displacement placement of the tritiated ligand bound to the membrane receptors. The IC50 for displacement of ^3 H-pirenzepine represents the affinity for the M1 receptor; the IC50 for displacement of 3H-NMS represents the affinity for the M2 receptor.
# [2] = target: T2, M2-type muscarinic cholinergic receptor (Cavia porcellus, UniProt H0VRN8); assay: Test for affinity for the M2-type muscarinic cholinergic receptor: displacement of [3H]N-methylscopolamine on smooth muscle of guinea-pig ileum; format: binding; conditions: guinea-pig ileum smooth muscle homogenate, 0.3 nM [3H]NMS, 20 min at 30° C., pH 7.5
# T2 construct: on a homogenate of smooth muscle of guinea-pig ileum; from tissue; host or cells: guinea-pig ileum smooth muscle homogenate
# T2 sequence (H0VRN8 1-466): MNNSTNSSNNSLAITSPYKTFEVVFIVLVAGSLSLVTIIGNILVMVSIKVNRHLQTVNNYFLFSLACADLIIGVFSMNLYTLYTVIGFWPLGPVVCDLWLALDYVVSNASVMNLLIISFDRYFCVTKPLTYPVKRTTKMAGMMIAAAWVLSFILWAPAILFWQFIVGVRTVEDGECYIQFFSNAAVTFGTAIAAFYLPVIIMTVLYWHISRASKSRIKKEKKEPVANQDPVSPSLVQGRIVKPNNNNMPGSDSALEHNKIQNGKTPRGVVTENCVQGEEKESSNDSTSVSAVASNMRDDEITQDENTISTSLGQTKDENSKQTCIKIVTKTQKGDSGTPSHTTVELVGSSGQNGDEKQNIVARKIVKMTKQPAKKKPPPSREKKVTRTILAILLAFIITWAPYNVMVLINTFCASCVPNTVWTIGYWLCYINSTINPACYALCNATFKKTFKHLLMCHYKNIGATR
# Text: as §1
# The interaction with M2 -type muscarinic receptors was studied by in vitro measurement, on a homogenate of smooth muscle of guinea-pig ileum, of the displacement of tritiated N-methylscopolamine ([^3 H]NMS) from its specific binding sites. Aliquots (50 μl) of a 0.625% (w/v) homogenate of smooth muscle of guinea-pig ileum in MEPES buffer (20 mM) containing NaCl (100 mM) and MgCl2 (10 mM) (final pH: 7.5) are incubated for 20 min at 30° C. in the presence of [^3 H]NMS ([…]; final concentration: 0.3 nM) and increasing concentrations of products to be tested. The final volume is 1 ml. The reaction is stopped by centrifugation for 5 min at 15,000 × g. The non-specific binding is determined in the presence of 10 μmol/l of atropine sulfate (Ref.: Hammer R., Berrie C. P., Birdsall N. I. M., Burgen A. S. V. and Hulme E. C., Nature, 283, 90-92, 1980; Hulme E. C., Birdsall N.1.M., Burgen A. S. V. and Mettha P., Mol. pharmacol., 14, 737-750, 1978).
# as §2
# [3] = target: T3, M1 central muscarinic cholinergic receptors (Mus musculus, UniProt P12657); assay: Antagonism of rotational behavior induced by intrastriatal injection of pirenzepine in mice; format: in vivo, mice (female, Swiss, CD 1); conditions: ip, read-out: Pirenzepine antagonism ED50
# T3 construct: The intrastriatal injection of PZ into mice induces rotational behavior; from tissue; host or cells: right striatum of living female mice (Swiss, CD 1)
# T3 sequence (P12657 1-460): T1 sequence (P08482 1-460) with S309P
# Procedure: Pirenzepine (PZ) is a specific antagonist of M1 central muscarinic cholinergic receptors. The intrastriatal injection of PZ into mice induces rotational behavior. The antagonism of this behavior by the products according to the invention was studied.
# The products according to the invention are injected intraperitoneally (i.p.) after solubilization in distilled water or suspension in a 5% solution of gum arabic. The control animals receive an injection of the pure solvent under the same conditions.
# The animals used are female mice (Swiss, CD 1, Charles River, France) with a body weight of between 25 and 30 grams.
# Pirenzepine is dissolved in a phosphate buffer; the pH of the solution is 6.
# The products to be studied or their solvents are injected intraperitoneally, in a volume of 0.4 ml per 20 g of body weight, 15 minutes before a direct injection of pirenzepine at a dose of […] into the right striatum of the mouse, according to the method described by p.
# The number of contralateral rotations (rotations in the opposite direction to the side injected) was counted for three 2-minute periods after the injection of pirenzepine: minutes 2 to 4, 8 to 10 and 13 to 15. Each treatment includes 3 to 4 doses and 10 animals per dose. For each treatment, the total number of rotations and the percentage antagonism compared with the control group are calculated.
# [4] = mice, i.p. 15 minutes before intrastriatal pirenzepine, 50% reduction in number of rotations
Structure (SMILES),"ED50 [3, 4]",IC50 [1],r = (M2 /M1) [1],IC50 [2],ED50 [3]
"CN(C)CCOc1cc2c(nn1)-c1ccccc1CCC2.Cl [SR 95822 A, 3-(2-Dimethylaminoethoxy)-6,7-dihydro-5H-benzocyclohepta[5,6-c]pyridazine hydrochloride]",,1000 nM,9.5,9500 nM,3 mg/kg
"CCN(CC)CCNc1cc2c(nn1)-c1cc(Cl)ccc1CCC2.Cl.Cl [SR 95878 A, 10-Chloro-3-(2-diethylaminoethylamino)-6,7-dihydro-5H-benzocyclohepta[5,6-c]pyridazine dihydrochloride]",,40 nM,26,1100 nM,2 mg/kg
"CCN(CC)CCNc1cc2c(nn1)-c1ccccc1CC2.Cl.Cl [SR 96054 A, 3-(2-Diethylaminoethylamino)-5,6-dihydrobenzo[h]cinnoline dihydrochloride]",,210 nM,36,7500 nM,3 mg/kg
"CCN(CC)CCNc1cc2ccc3ccccc3c2nn1.Cl.Cl [SR 96055 A, 3-(2-Diethylaminoethylamino)benzo[h]cinnoline dihydrochloride]",,320 nM,53,17000 nM,3 mg/kg

# Continued, in another order:
"ED50 [3, 4]",Structure (SMILES),IC50 [1],r = (M2 /M1) [1],IC50 [2],ED50 [3]
3 mg/kg,CN(C)CCNc1cc2c(nn1)-c1ccccc1CCC2 [SR 95824 A],200 nM,125,25000 nM,
0.3 mg/kg,"CCN1CCCC1CNc1cc2c(nn1)-c1ccccc1CCC2 (centres unmarked) [SR 95879 A, 3-[(1-Ethylpyrrolidin-2-yl)methylamino]-6,7-dihydro-5H-benzocyclohepta-5,6-c]pyridazine dihydrochloride]",140 nM,7,1000 nM,
3 mg/kg,c1ccc2c(c1)CCCc1cc(NCCN3CCCC3)nnc1-2 [SR 95883 A],130 nM,35,4500 nM,
15 mg/kg,"CN1CCC(Nc2cc3c(nn2)-c2ccccc2CCC3)CC1 [SR 96093 A, 3-(1-Methylpiperidin-4-yl)amino]-6,7-dihydro-5H-benzocyclohepta[5,6-c]pyridazine dihydrochloride]",1200 nM,42,50000 nM,
